From US20090105266A1, “Organic compounds” (priority 2007, published 2009)

Target: T1, mGluR5 (Homo sapiens, UniProt P41594)
T1 construct: expressed in transfected cells
Assay: inhibition of the glutamate (agonist) induced elevation of the inositol phosphate turnover
Assay type: cell-based
Conditions: inhibition of glutamate induced elevation of inositol phosphate turnover at 0.1 μM
From the text: This can be determined in vitro for example at recombinant human metabotropic glutamate receptors, especially PLC-coupled subtypes thereof such as mGluR5, using different procedures like, for example, measurement of the inhibition of the agonist induced elevation of intracellular Ca^2+ concentration in accordance with L. P. Daggett et al., Neuropharm. Vol. 34, pages 871-886 (1995), P. J. Flor et al., J. Neurochem. Vol. 67, pages 58-63 (1996) or by determination to what extent the agonist induced elevation of the inositol phosphate turnover is inhibited as described by T. Knoepfel et al., Eur. J. Pharmacol. Vol. 288, pages 389-392 (1994), L. P. Daggett et al., Neuropharm. Vol. 67, pages 58-63 (1996) and references cited therein. Isolation and expression of human mGluR subtypes are described in U.S. Pat. No. 5,521,297. Selected agents of the invention show IC50 values for the inhibition of the agonist (e.g. glutamate or quisqualate) induced elevation of intracellular Ca2+ concentration or the agonist (e.g. glutamate or quisqualate) induced inositol phosphate turnover, measured in recombinant cells expressing hmGluR^5a of about 0.1 nM to about 50 μM.
Activity of compounds of the present invention was examined by determination to what extent the agonist induced elevation of the inositol phosphate turnover is inhibited as described by T. Knoepfel et al., Eur. J. Pharmacol. Vol. 288, pages 389-392 (1994), L. P. Daggett et al., Neuropharm. Vol. 67, pages 58-63 (1996) and references cited therein.
The table below represents percentages of inhibition of the glutamate induced elevation of the inositol phosphate turnover at a concentration of 0.1 μM.

T1 sequence (P41594 21-1180 isoform P41594-2 limits assumed): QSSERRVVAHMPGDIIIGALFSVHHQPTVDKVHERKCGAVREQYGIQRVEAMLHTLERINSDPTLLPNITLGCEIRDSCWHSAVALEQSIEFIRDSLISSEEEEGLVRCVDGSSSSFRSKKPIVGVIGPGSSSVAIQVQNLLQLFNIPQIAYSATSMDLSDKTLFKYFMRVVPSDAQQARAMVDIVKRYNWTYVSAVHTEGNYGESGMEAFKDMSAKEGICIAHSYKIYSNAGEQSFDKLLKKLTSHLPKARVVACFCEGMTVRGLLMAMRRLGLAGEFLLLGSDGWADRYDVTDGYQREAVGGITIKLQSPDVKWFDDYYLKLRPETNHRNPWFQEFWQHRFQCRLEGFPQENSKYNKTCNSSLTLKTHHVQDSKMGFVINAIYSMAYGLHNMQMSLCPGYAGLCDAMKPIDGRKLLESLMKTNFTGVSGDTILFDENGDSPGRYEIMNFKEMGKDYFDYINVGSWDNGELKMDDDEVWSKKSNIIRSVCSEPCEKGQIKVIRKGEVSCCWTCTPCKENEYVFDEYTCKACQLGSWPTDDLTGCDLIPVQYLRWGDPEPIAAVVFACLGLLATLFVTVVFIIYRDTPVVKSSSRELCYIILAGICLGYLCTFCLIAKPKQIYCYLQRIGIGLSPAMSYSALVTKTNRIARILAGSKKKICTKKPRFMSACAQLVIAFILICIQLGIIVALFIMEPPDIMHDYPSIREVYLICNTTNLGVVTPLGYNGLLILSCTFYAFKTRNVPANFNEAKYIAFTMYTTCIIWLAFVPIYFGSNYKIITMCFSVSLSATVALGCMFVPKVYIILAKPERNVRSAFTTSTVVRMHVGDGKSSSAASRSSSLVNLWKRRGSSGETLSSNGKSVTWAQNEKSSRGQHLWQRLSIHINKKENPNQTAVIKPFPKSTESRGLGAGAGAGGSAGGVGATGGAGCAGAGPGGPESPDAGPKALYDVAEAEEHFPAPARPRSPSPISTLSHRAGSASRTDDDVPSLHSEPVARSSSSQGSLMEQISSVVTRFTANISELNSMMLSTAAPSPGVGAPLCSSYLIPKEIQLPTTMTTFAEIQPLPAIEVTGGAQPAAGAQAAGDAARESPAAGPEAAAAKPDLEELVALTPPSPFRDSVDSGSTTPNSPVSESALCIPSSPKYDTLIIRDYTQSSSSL

| inhibition at 0.1 µM [%] | Compound | mGluR5-activity in [%] inhibition at 0.1 μM [%] |
| --- | --- | --- |
| 57 | CCCCCn1c(-c2cnc(Nc3ccc(C)nc3)c(Cl)c2)nc2ccccc21 [Example 19, [3-Chloro-5-(1-pentyl-1H-benzoimidazol-2-yl)-pyridin-2-yl]-(6-methyl-pyridin-3-yl)-amine] | – |
| 65 | CCCn1c(-c2cnc(Nc3ccc(C)nc3)c(Cl)c2)nc2cc(C(F)(F)F)ccc21 [Example 21, [3-Chloro-5-(1-propyl-5-trifluoromethyl-1H-benzoimidazol-2-yl)-pyridin-2-yl]-(6-methyl-pyridin-3-yl)-amine] | – |
| 97 | CCCn1c(-c2cnc(Nc3ccc(C)nc3)c(Cl)c2)nc2cc(C)ccc21 [Example 22, [3-Chloro-5-(5-methyl-1-propyl-1H-benzoimidazol-2-yl)-pyridin-2-yl]-(6-methyl-pyridin-3-yl)-amine] | – |
| 84 | CCCn1c(-c2cnc(Nc3ccc(C)nc3)c(Cl)c2)nc2ccc(C)cc21 [Example 23, [3-Chloro-5-(6-methyl-1-propyl-1H-benzoimidazol-2-yl)-pyridin-2-yl]-(6-methyl-pyridin-3-yl)-amine] | – |
| 101 | CCCn1c(-c2cnc(Nc3ccc(C)nc3)c(Cl)c2)nc2cccc(C)c21 [Example 24, [3-Chloro-5-(7-methyl-1-propyl-1H-benzoimidazol-2-yl)-pyridin-2-yl]-(6-methyl-pyridin-3-yl)-amine] | – |
| 97 | CCCn1c(-c2cnc(Nc3ccc(C)nc3)c(Cl)c2)nc2c(C)cccc21 [Example 25, [3-Chloro-5-(4-methyl-1-propyl-1H-benzoimidazol-2-yl)-pyridin-2-yl]-(6-methyl-pyridin-3-yl)-amine] | – |
| 99 | CCCn1c(-c2cnc(Nc3ccc(C)nc3)c(Cl)c2)nc2cc(F)c(F)cc21 [Example 30, [3-Chloro-5-(5,6-difluoro-1-propyl-1H-benzoimidazol-2-yl)-pyridin-2-yl]-(6-methyl-pyridin-3-yl)-amine] | – |
| 91 | CCCn1c(-c2cnc(Nc3ccc(C)nc3)c(Cl)c2)nc2cc(Cl)ccc21 [Example 45, [3-Chloro-5-(5-chloro-1-propyl-1H-benzoimidazol-2-yl)-pyridin-2-yl]-(6-methyl-pyridin-3-yl)-amine] | – |
| 100 | CCCn1c(-c2cnc(Nc3ccc(C)nc3)c(Cl)c2)nc2c(Cl)cccc21 [Example 47, [3-Chloro-5-(4-chloro-1-propyl-1H-benzoimidazol-2-yl)-pyridin-2-yl]-(6-methyl-pyridin-3-yl)-amine] | – |
| 101 | CCCn1c(-c2cnc(Nc3ccc(C)nc3)c(Cl)c2)nc2cccc(Cl)c21 [Example 48, [3-Chloro-5-(7-chloro-1-propyl-1H-benzoimidazol-2-yl)-pyridin-2-yl]-(6-methyl-pyridin-3-yl)-amine] | – |
| 99 | CCCn1c(-c2cnc(Nc3ccc(Cl)cc3)c(Cl)c2)nc2cccc(Cl)c21 [Example 52, [3-Chloro-5-(7-chloro-1-propyl-1H-benzoimidazol-2-yl)-pyridin-2-yl]-(4-chloro-phenyl)-amine] | – |
| 97 | CCCn1c(-c2cnc(Nc3ccc(F)cc3)c(Cl)c2)nc2cccc(Cl)c21 [Example 54, [3-Chloro-5-(7-chloro-1-propyl-1H-benzoimidazol-2-yl)-pyridin-2-yl]-(4-fluoro-phenyl)-amine] | – |
| 63 | CCCn1c(-c2cnc(Nc3cccc(F)c3)c(Cl)c2)nc2cccc(Cl)c21 [Example 55, [3-Chloro-5-(7-chloro-1-propyl-1H-benzoimidazol-2-yl)-pyridin-2-yl]-(3-fluoro-phenyl)-amine] | – |
| 100 | CCCn1c(-c2cnc(Nc3ccc(C#N)cc3)c(Cl)c2)nc2cccc(Cl)c21 [Example 56, 4-[3-Chloro-5-(7-chloro-1-propyl-1H-benzoimidazol-2-yl)-pyridin-2-ylamino]-benzonitrile] | – |
| 93 | CCCn1c(-c2cnc(Nc3ccc(F)c(F)c3)c(Cl)c2)nc2cccc(Cl)c21 [Example 57, [3-Chloro-5-(7-chloro-1-propyl-1H-benzoimidazol-2-yl)-pyridin-2-yl]-(3,4-difluoro-phenyl)-amine] | – |
| 92 | CCCn1c(-c2cnc(Nc3ccc(C)cc3)c(Cl)c2)nc2ccc(F)cc21 [Example 65, [3-Chloro-5-(6-fluoro-1-propyl-1H-benzoimidazol-2-yl)-pyridin-2-yl]-p-tolyl-amine] | – |
| 93 | CCCn1c(-c2cnc(Nc3ccc(OC)cc3)c(Cl)c2)nc2ccc(F)cc21 [Example 66, [3-Chloro-5-(6-fluoro-1-propyl-1H-benzoimidazol-2-yl)-pyridin-2-yl]-(4-methoxy-phenyl)-amine] | – |

More lines, now with the values behind:

| Compound | inhibition at 0.1 µM [%] | mGluR5-activity in [%] inhibition at 0.1 μM [%] |
| --- | --- | --- |
| Cc1ccc(Nc2ncc(-c3nc4ccccc4n3CC(C)C)cc2Cl)cn1 [Example 20, [3-Chloro-5-(1-isobutyl-1H-benzoimidazol-2-yl)-pyridin-2-yl]-(6-methyl-pyridin-3-yl)-amine] | 98 | – |
| CCCn1c(-c2cnc(Nc3ccc(C)nc3)c(Cl)c2)nc2ccc(C)c(C)c21 [Example 26, [3-Chloro-5-(6,7-dimethyl-1-propyl-1H-benzoimidazol-2-yl)-pyridin-2-yl]-(6-methyl-pyridin-3-yl)-amine] | 98 | – |
| CCCn1c(-c2cnc(Nc3ccc(C)nc3)c(Cl)c2)nc2c(C)ccc(C)c21 [Example 29, [3-Chloro-5-(4,7-dimethyl-1-propyl-1H-benzoimidazol-2-yl)-pyridin-2-yl]-(6-methyl-pyridin-3-yl)-amine] | 99 | – |
| Cc1ccc(Nc2ncc(-c3nc4cccc5c4n3CCC5)cc2Cl)cn1 [Example 31, [3-Chloro-5-(5,6-dihydro-4H-imidazo[4,5,1-ij]quinolin-2-yl)-pyridin-2-yl]-(6-methyl-pyridin-3-yl)-amine] | 90 | – |
| CCCn1c(-c2cnc(Nc3ccc(C)nc3)c(Cl)c2)nc2cc(I)cc(Cl)c21 [Example 34b, [3-Chloro-5-(7-chloro-5-iodo-1-propyl-1H-benzoimidazol-2-yl)-pyridin-2-yl]-(6-methyl-pyridin-3-yl)-amine] | 97 | – |
| CCCn1c(-c2cnc(Nc3ccccc3F)c(Cl)c2)nc2cccc(Cl)c21 [Example 53, [3-Chloro-5-(7-chloro-1-propyl-1H-benzoimidazol-2-yl)-pyridin-2-yl]-(2-fluoro-phenyl)-amine] | 95 | – |
| CCCn1c(-c2cnc(Nc3cccc(F)c3F)c(Cl)c2)nc2cccc(Cl)c21 [Example 58, [3-Chloro-5-(7-chloro-1-propyl-1H-benzoimidazol-2-yl)-pyridin-2-yl]-(2,3-difluoro-phenyl)-amine] | 40 | – |
| CCCn1c(-c2cnc(Nc3ccncc3)c(Cl)c2)nc2cccc(Cl)c21 [Example 59, [3-Chloro-5-(7-chloro-1-propyl-1H-benzoimidazol-2-yl)-pyridin-2-yl]-pyridin-4-yl-amine] | 51 | – |
| CCCn1c(-c2cnc(Nc3ccc(C)nn3)c(Cl)c2)nc2cccc(Cl)c21 [Example 60, [3-Chloro-5-(7-chloro-1-propyl-1H-benzoimidazol-2-yl)-pyridin-2-yl]-(6-methyl-pyridazin-3-yl)-amine] | 87 | – |
| CCCn1c(-c2cnc(Nc3ccc4nccnc4c3)c(Cl)c2)nc2cccc(Cl)c21 [Example 61, [3-Chloro-5-(7-chloro-1-propyl-1H-benzoimidazol-2-yl)-pyridin-2-yl]-quinoxalin-6-yl-amine] | 96 | – |
| CCCn1c(-c2cnc(Nc3cnc(C)cn3)c(Cl)c2)nc2cccc(Cl)c21 [Example 62, [3-Chloro-5-(7-chloro-1-propyl-1H-benzoimidazol-2-yl)-pyridin-2-yl]-(5-methyl-pyrazin-2-yl)-amine] | 99 | – |
| CCCn1c(-c2cnc(Nc3cnc4ccccc4c3)c(Cl)c2)nc2cccc(Cl)c21 [Example 63, [3-Chloro-5-(7-chloro-1-propyl-1H-benzoimidazol-2-yl)-pyridin-2-yl]-quinolin-3-yl-amine] | 28 | – |
| CCCn1c(-c2cnc(Nc3ccc4ncccc4c3)c(Cl)c2)nc2cccc(Cl)c21 [Example 64, [3-Chloro-5-(7-chloro-1-propyl-1H-benzoimidazol-2-yl)-pyridin-2-yl]-quinolin-6-yl-amine] | 17 | – |
| CCCn1c(-c2cnc(Nc3c(F)cccc3F)c(Cl)c2)nc2cccc(Cl)c21 [Example 67, [3-Chloro-5-(7-chloro-1-propyl-1H-benzoimidazol-2-yl)-pyridin-2-yl]-(2,6-difluoro-phenyl)-amine] | 42 | – |
| CCCn1c(-c2cnc(Nc3ccc(N(C)C)nc3)c(Cl)c2)nc2ccc(F)cc21 [Example 68, N-5-[3-Chloro-5-(6-fluoro-1-propyl-1H-benzoimidazol-2-yl)-pyridin-2-yl]-N-2,N-2-dimethyl-pyridine-2,5-diamine] | – | 43 |
| CCCn1c(-c2cnc(Nc3ccc(N(C)C)nc3)c(Cl)c2)nc2ccccc21 [Example 69, N-5-[3-Chloro-5-(1-propyl-1H-benzoimidazol-2-yl)-pyridin-2-yl]-N2,N-2-dimethyl-pyridine-2,5-diamine] | – | 32 |
